Earlier results in patent US20040175342A1, “Process of making and using composition containing oxidation-sensitive hydrophilic active principle and maleic anhydride copolymer” (L'OREAL, priority 2002, published 2004).

What was measured:
[1] = test system: reconstructed epidermides
[2] = test system: reconstructed epidermides; details: after treatment

Row | bioavailability | Compound | synthesis of ceramides [1] | barrier function of reconstructed epidermides [2] | effect on differentiation of keratinocytes (keratinocytes)
1 | very low | O=C1O[C@H]([C@@H](O)CO)C([O-])=C1OP(=O)([O-])[O-].O=C1O[C@H]([C@@H](O)CO)C([O-])=C1OP(=O)([O-])[O-].[Mg+2].[Mg+2].[Mg+2] [magnesium ascorbyl phosphate] | this effect has also been demonstrated |  | 
2 |  | O=C1O[C@H]([C@@H](O)CO)C(O)=C1O [Ascorbic acid, ascorbic acid] | increase | improved | prodifferentiating effect
3 |  | O=C1O[C@H]([C@@H](O)CO)C(O)=C1O[C@H]1O[C@H](CO)[C@@H](O)[C@H](O)[C@H]1O [ascorbyl glucoside] | this effect has also been demonstrated |  | 
